# Values joined by “and” are separate entries in the source; they are usually repeats but may differ in a detail not shown here. Equal entries are not always repeated.
# Columns and labels:
# [1] = Pharmacokinetic analysis, plasma and brain;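 as to Fig. 3a level, single animals 1-3: plasma concentration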;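 as to Fig. 3b level, single animals 1-3: brain concentration in ng/g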; format: in vivo, ICR (CD-1) male mice; set-up: Fig. 3a level, single animals 1-3 / Fig. 3b level, single animals 1-3: unit not given here
# [2] = tested on: NIH3T3 stably expressing the KFERQ-PS-Dendra; experiment: CMA activity, KFERQ-PS-Dendra fluorescent reporter in NIH3T3 mouse fibroblasts; format: cell-based; set-up: CMA activity (Fig. 1d), MEAN / CMA activity (Fig. 1e-g), mean / CMA activity (Fig. 1d), individual experiments / CMA activity, mean (Fig. S2c, second panel) / CMA activity, mean (Fig. S2c, first panel) / CMA activity, mean (Fig. S2c, third panel): unit not given here; settings: for CMA activity (Fig. 1e-g), mean: n = 4
# Description: (§1) Cells were transduced with lentivirus carrying the KFERQ-PS-Dendra reporter as before. Cells were photoactivated by exposure to a 3.5 mA (current constant) light emitting diode (LED: Norlux, 405 nm) for 3 min and then plated in glass-bottom 96 well plates. At the desired times, cells were fixed with 4% PFA and imaged using high-content microscopy (Operetta system, Perkin Elmer). Images were quantified using the manufacturer’s software in a minimum of 1,200 cells in 9 independent fields per well. […] This was particularly important in the case of primary human cells where the efficiency of transduction was ~65%. To avoid confounding effects for drug-induced changes in cell volume or adherence to the plate that could bring a fraction of the cells per field outside of focus, we set a threshold to count only […] that have at least 1/10 of the average number of […] detected in the untreated wells for each cell type (3–4 puncta/cell in the case of NIH3T3 and N2a cells and 5 puncta/cell in primary human fibroblasts).
# NIH3T3 = experiment: Intracellular proteolysis of long half-life proteins; format: cell-based, mouse
# Description: Confluent cells were labelled with [^3H]leucine (2μCi/ml) (NEN-PerkinElmer Life Sciences) for 48 h and then extensively washed and maintained in medium with an excess of unlabeled leucine. Proteolysis was calculated from aliquots of the medium taken at different times and precipitated in trichloroacetic acid, as the amount of acid-precipitable radioactivity transformed to acid-soluble radioactivity at each time. Where indicated cell were treated during the chase with […] leupeptin (Sigma, #108975) and […] NH4Cl (to determine lysosomal degradation) or with 100 μm MRT 68921 dihydrochloride (Tocris, #5780) (to determine macroautophagy degradation).
# [3] = tested on: primary human fibroblast expressing the KFERQ-PS-Dendra reporter; experiment: CMA activity, KFERQ-PS-Dendra reporter in primary human fibroblasts; format: cell-based; set-up: key to CMA activity, mean (Fig. S2c): puncta per cell
# Description: as §1
# [4] = tested on: neuroblastoma cell line N2a expressing the KFERQ-PS-Dendra reporter; experiment: CMA activity, KFERQ-PS-Dendra reporter in N2a cells; format: cell-based, mouse; set-up: CMA activity, mean (Fig. S2a): unit not given here
# Description: as §1
structure (smiles),measurement,setting,value
CC(=O)Nc1ccc(C2=Nc3ccc(Cl)cc3OC2)cc1 [CA77],"Fig. 3a level, single animals 1-3","[1]; IV, Time 0.083 h",52.9 and 41.4 and 14.2
same,"Fig. 3b level, single animals 1-3","[1]; IV, Time 0.083 h",3773 and 2943 and 693
same,predicted brain concentration,"[1]; intraperitoneal 30 mg/kg bw, converted from Cmax or AUC (CA39: AUC and extended half-life)",5 to 20 µM
same,"CMA activity (Fig. 1d), MEAN","[2]; 20 μM of each compound, n = 3 independent experiments",3.597
same,"CMA activity (Fig. 1d), individual experiments","[2]; 20 μM of each compound, single experiments",3.288 and 3.538 and 3.964
same,"CMA activity (Fig. 1e-g), mean","[2]; 12h, concentration 0.02 (unit not given)",6.451
same,"CMA activity (Fig. 1e-g), mean","[2]; 12h, concentration 0.2",6.218
same,"CMA activity (Fig. 1e-g), mean","[2]; 12h, concentration 2",6.38
same,"CMA activity (Fig. 1e-g), mean","[2]; 12h, concentration 5",31.6977
same,"CMA activity (Fig. 1e-g), mean","[2]; 12h, concentration 10",39.5886
same,"CMA activity (Fig. 1e-g), mean","[2]; 12h, concentration 20",52.9995
same,"CMA activity (Fig. 1e-g), mean","[2]; 12h, concentration 30",60.386
same,"CMA activity (Fig. 1e-g), mean","[2]; 12h, concentration 40",43.8824
same,"CMA activity (Fig. 1e-g), mean","[2]; 12h, concentration 50",33.4774
same,"CMA activity (Fig. 1e-g), mean","[2]; 24h, concentration 0.02",5.564
same,"CMA activity (Fig. 1e-g), mean","[2]; 24h, concentration 0.2",6.782
same,"CMA activity (Fig. 1e-g), mean","[2]; 24h, concentration 2",8.318
same,"CMA activity (Fig. 1e-g), mean","[2]; 24h, concentration 5",26.3626
same,"CMA activity (Fig. 1e-g), mean","[2]; 24h, concentration 10",39.2844
same,"CMA activity (Fig. 1e-g), mean","[2]; 24h, concentration 20",59.6703
same,"CMA activity (Fig. 1e-g), mean","[2]; 24h, concentration 30",82.4074
same,"CMA activity (Fig. 1e-g), mean","[2]; 24h, concentration 40",57.9474
same,"CMA activity (Fig. 1e-g), mean","[2]; 24h, concentration 50",59.2412
same,"CMA activity (Fig. 1h-j), mean, untreated (0) = 1","[2]; concentration 0.2, 12+12w (12 h, then 12 h after washing out)",0.8003
same,"CMA activity (Fig. 1h-j), mean, untreated (0) = 1","[2]; concentration 0.2, 12h",0.5989
same,"CMA activity (Fig. 1h-j), mean, untreated (0) = 1","[2]; concentration 0.2, 24h",0.8798
same,"CMA activity (Fig. 1h-j), mean, untreated (0) = 1","[2]; concentration 2, 12+12w",0.935
same,"CMA activity (Fig. 1h-j), mean, untreated (0) = 1","[2]; concentration 2, 12h",0.6146
same,"CMA activity (Fig. 1h-j), mean, untreated (0) = 1","[2]; concentration 2, 24h",1.079
same,"CMA activity (Fig. 1h-j), mean, untreated (0) = 1","[2]; concentration 5, 12+12w",4.471
same,"CMA activity (Fig. 1h-j), mean, untreated (0) = 1","[2]; concentration 5, 12h",3.053
same,"CMA activity (Fig. 1h-j), mean, untreated (0) = 1","[2]; concentration 5, 24h",3.42
same,"CMA activity (Fig. 1h-j), mean, untreated (0) = 1","[2]; concentration 10, 12+12w",4.902
same,"CMA activity (Fig. 1h-j), mean, untreated (0) = 1","[2]; concentration 10, 12h",3.813
same,"CMA activity (Fig. 1h-j), mean, untreated (0) = 1","[2]; concentration 10, 24h",5.096
same,"CMA activity (Fig. 1h-j), mean, untreated (0) = 1","[2]; concentration 20, 12+12w",5.399
same,"CMA activity (Fig. 1h-j), mean, untreated (0) = 1","[2]; concentration 20, 12h",5.105
same,"CMA activity (Fig. 1h-j), mean, untreated (0) = 1","[2]; concentration 20, 24h",7.74
same,"CMA activity (Fig. 1h-j), mean, untreated (0) = 1","[2]; concentration 30, 12+12w",7.708
same,"CMA activity (Fig. 1h-j), mean, untreated (0) = 1","[2]; concentration 30, 12h",5.817
same,"CMA activity (Fig. 1h-j), mean, untreated (0) = 1","[2]; concentration 30, 24h",10.6896
same,CMA activation compared with AR7,"[2]; fluorescent CMA reporter in mouse fibroblasts, basal and inducible CMA",> 40 % CMA of AR7
same,toxicity in cells,[2]; mouse fibroblasts,without noticeable toxicity
same,duration of the increase in degradation of long-lived proteins,"NIH3T3; NIH3T3, 10 μM",remained upregulated 24 h
same,"Lysosomal proteolysis, Mean (Fig. S3c)",NIH3T3; Time 6,3.76
same,"Lysosomal proteolysis, Mean (Fig. S3c)",NIH3T3; Time 12,7.75
same,"CMA activity, mean (Fig. S2c)",[3]; concentration 0.02,27.1536
same,"CMA activity, mean (Fig. S2c)",[3]; concentration 0.2,22.1247
same,"CMA activity, mean (Fig. S2c)",[3]; concentration 2,23.6319
same,"CMA activity, mean (Fig. S2c)",[3]; concentration 5,30.8194
same,CMA activation in human cells,[3]; in words,efficiently activated CMA
same,"CMA activity, mean relative to concentration 0 = 1 (Fig. S2b)","[4]; 12+12w, concentration 0.2",0.9934
same,"CMA activity, mean relative to concentration 0 = 1 (Fig. S2b)","[4]; 12+12w, concentration 2",0.9832
same,"CMA activity, mean relative to concentration 0 = 1 (Fig. S2b)","[4]; 12+12w, concentration 5",2.103
same,"CMA activity, mean relative to concentration 0 = 1 (Fig. S2b)","[4]; 12+12w, concentration 10",2.605
same,"CMA activity, mean relative to concentration 0 = 1 (Fig. S2b)","[4]; 12+12w, concentration 20",4.196
same,"CMA activity, mean relative to concentration 0 = 1 (Fig. S2b)","[4]; 12+12w, concentration 30",3.752
same,"CMA activity, mean (Fig. S2a)","[4]; 12h, concentration 0.02",2.724
same,"CMA activity, mean (Fig. S2a)","[4]; 12h, concentration 0.2",4.16
same,"CMA activity, mean relative to concentration 0 = 1 (Fig. S2b)","[4]; 12h, concentration 0.2",0.9543
same,"CMA activity, mean (Fig. S2a)","[4]; 12h, concentration 2",4.326
same,"CMA activity, mean relative to concentration 0 = 1 (Fig. S2b)","[4]; 12h, concentration 2",0.9922
same,"CMA activity, mean (Fig. S2a)","[4]; 12h, concentration 5",6.6688
same,"CMA activity, mean relative to concentration 0 = 1 (Fig. S2b)","[4]; 12h, concentration 5",1.5297
same,"CMA activity, mean (Fig. S2a)","[4]; 12h, concentration 10",9.952
same,"CMA activity, mean relative to concentration 0 = 1 (Fig. S2b)","[4]; 12h, concentration 10",2.283
same,"CMA activity, mean (Fig. S2a)","[4]; 12h, concentration 20",10.0764
same,"CMA activity, mean relative to concentration 0 = 1 (Fig. S2b)","[4]; 12h, concentration 20",2.311
same,"CMA activity, mean (Fig. S2a)","[4]; 12h, concentration 30",18.9972
same,"CMA activity, mean (Fig. S2a)","[4]; 12h, concentration 40",10.5987
same,"CMA activity, mean (Fig. S2a)","[4]; 12h, concentration 50",9.368
same,"CMA activity, mean (Fig. S2a)","[4]; 12h, concentration 60",2.016
same,"CMA activity, mean (Fig. S2a)","[4]; 24h, concentration 0.02",2.2722
same,"CMA activity, mean (Fig. S2a)","[4]; 24h, concentration 0.2",4.676
same,"CMA activity, mean relative to concentration 0 = 1 (Fig. S2b)","[4]; 24h, concentration 0.2",0.9787
same,"CMA activity, mean (Fig. S2a)","[4]; 24h, concentration 2",4.697
same,"CMA activity, mean relative to concentration 0 = 1 (Fig. S2b)","[4]; 24h, concentration 2",0.9831
same,"CMA activity, mean (Fig. S2a)","[4]; 24h, concentration 5",13.5914
same,"CMA activity, mean relative to concentration 0 = 1 (Fig. S2b)","[4]; 24h, concentration 5",2.845
same,"CMA activity, mean (Fig. S2a)","[4]; 24h, concentration 10",13.8573
same,"CMA activity, mean relative to concentration 0 = 1 (Fig. S2b)","[4]; 24h, concentration 10",2.901
same,"CMA activity, mean (Fig. S2a)","[4]; 24h, concentration 20",21.7668
same,"CMA activity, mean relative to concentration 0 = 1 (Fig. S2b)","[4]; 24h, concentration 20",4.556
same,"CMA activity, mean (Fig. S2a)","[4]; 24h, concentration 30",18.5853
same,"CMA activity, mean relative to concentration 0 = 1 (Fig. S2b)","[4]; 24h, concentration 30",3.89
same,"CMA activity, mean (Fig. S2a)","[4]; 24h, concentration 40",10.9146
same,"CMA activity, mean (Fig. S2a)","[4]; 24h, concentration 50",9.363
same,"CMA activity, mean (Fig. S2a)","[4]; 24h, concentration 60",0.7571
same,CMA activation in neuron-related mouse cells,[4]; in words,efficiently activated CMA
